Assay: xn = mol fraction of the nth substance listed
Settings: 101 kPa

CCCC[n+]1ccn(C)c1.O=S(=O)([N-]S(=O)(=O)C(F)(F)F)C(F)(F)F + CC(=O)[O-].CCCC[n+]1ccn(C)c1
x2 = 0
Settings	viscosity [mPa·s]
293.15 K	62.9
303.15 K	40.8
313.15 K	28.1
323.15 K	20.29
333.15 K	15.34
343.15 K	11.98

CC(=O)[O-].CCCC[P+](CCCC)(CCCC)CCCC + CC(=O)[O-].CCCC[n+]1ccn(C)c1
viscosity [mPa·s]
Settings	313.15 K	323.15 K	333.15 K	343.15 K	353.15 K
x2 = 0	–	–	67.1	43.1	29.1
x2 = 0.5018	323	–	96.7	59.2	38.7
x2 = 0.751	–	133	78	49.6	33.2

CC(=O)[O-].CCCC[n+]1ccn(C)c1 + CCCC[n+]1ccn(C)c1.O=S(=O)([N-]S(=O)(=O)C(F)(F)F)C(F)(F)F
viscosity [mPa·s]
Settings	293.15 K	298.15 K	303.15 K	313.15 K	323.15 K	333.15 K	343.15 K	353.15 K
x1 = 0.2512	101.2	78	61.3	–	27.9	20.19	15.46	–
x1 = 0.5001	178	132	–	60.7	39.5	27.4	19.92	15.15
x1 = 0.7497	316	223	–	91.3	–	36.9	25.7	18.76

Source: a compilation of properties of binary mixtures (doi:10.1021/acs.jpcb.7b06452)
